Experimental data reported in ChEMBL document CHEMBL4622870, “Design, synthesis and evaluation of hydrazine and acyl hydrazone derivatives of 5-pyrrolidin-2-one as antifungal agents” (Bioorg Med Chem Lett, 2020).

How the values were obtained:
[1] = tested on: HEK293; assay: Cytotoxicity against human HEK293 cells assessed as effect on cell viability measured after 72 hrs by MTS assay; format: cell-based; conditions: hek293, 72 h
[2] = tested on: Alternaria alternata; assay: Antifungal activity against Alternaria alternata assessed as fungal growth inhibition at 100 ug/ml by micro-dilution method relative to control; format: functional; conditions: read-out: GI
[3] = tested on: Penicillium ochrochloron; assay: Antifungal activity against Penicillium ochrochloron assessed as fungal growth inhibition at 100 ug/ml by micro-dilution method relative to control; format: functional; conditions: read-out: GI
[4] = tested on: Fusarium solani; assay: Antifungal activity against Fusarium solani assessed as fungal growth inhibition at 100 ug/ml by micro-dilution method relative to control; format: functional; conditions: read-out: GI
[5] = tested on: Pichia kudriavzevii; assay: Antifungal activity against Candida krusei assessed as fungal growth inhibition at 100 ug/ml by micro-dilution method relative to control; format: functional; conditions: read-out: GI
[6] = tested on: Kluyveromyces marxianus; assay: Antifungal activity against Candida pseudotropicalis assessed as fungal growth inhibition at 100 ug/ml by micro-dilution method relative to control; format: functional; conditions: read-out: GI
[7] = tested on: Cladosporium cladosporioides; assay: Antifungal activity against Cladosporium cladosporioides assessed as fungal growth inhibition at 100 ug/ml by micro-dilution method relative to control; format: functional; conditions: read-out: GI
[8] = tested on: Candida tropicalis; assay: Antifungal activity against Candida tropicalis assessed as fungal growth inhibition at 100 ug/ml by micro-dilution method relative to control; format: functional; conditions: read-out: GI
[9] = tested on: Botrytis cinerea; assay: Antifungal activity against Botrytis cinerea assessed as fungal growth inhibition at 100 ug/ml by micro-dilution method relative to control; format: functional; conditions: read-out: GI
[10] = tested on: Sclerotinia sclerotiorum; assay: Antifungal activity against Sclerotinia sclerotiorum assessed as fungal growth inhibition at 100 ug/ml by micro-dilution method relative to control; format: functional; conditions: read-out: GI
[11] = tested on: Aspergillus oryzae; assay: Antifungal activity against Aspergillus oryzae assessed as fungal growth inhibition at 100 ug/ml by micro-dilution method relative to control; format: functional; conditions: read-out: GI
[12] = tested on: Geotrichum candidum; assay: Antifungal activity against Geotrichum candidum assessed as fungal growth inhibition at 100 ug/ml by micro-dilution method relative to control; format: functional; conditions: read-out: GI
[13] = tested on: Paecilomyces variotii; assay: Antifungal activity against Paecilomyces variotii assessed as fungal growth inhibition at 100 ug/ml by micro-dilution method relative to control; format: functional; conditions: read-out: GI
[14] = tested on: Geotrichum candidum; assay: Antifungal activity against Geotrichum candidum assessed as fungal growth inhibition by micro-dilution method; format: functional

Row | Structure (SMILES) | Activity [1] | inhibition of growth at 100 µg/mL [2] [%] | inhibition of growth at 100 µg/mL [3] [%] | inhibition of growth at 100 µg/mL [4] [%] | inhibition of growth at 100 µg/mL [5] [%] | inhibition of growth at 100 µg/mL [6] [%] | inhibition of growth at 100 µg/mL [7] [%] | inhibition of growth at 100 µg/mL [8] [%] | inhibition of growth at 100 µg/mL [9] [%] | inhibition of growth at 100 µg/mL [10] [%] | inhibition of growth at 100 µg/mL [11] [%] | inhibition of growth at 100 µg/mL [12] [%] | inhibition of growth at 100 µg/mL [13] [%] | MIC50 [14] [µg/mL]
1 | CC(C)=CCC/C(C)=C/C=N/NC(=O)[C@@H]1CCC(=O)N1 | Non-Toxic | 0 | 0 | 43 | 0 | 8 | 27 | 38 | 27 | 15 | 17 | 5 | 0 | 
2 | C=C(C)C1CC=C(/C=N/NC(=O)[C@@H]2CCC(=O)N2)CC1 (stereo not given in full) | Non-Toxic | 0 | 45 | 0 | 18 | 0 | 56 | 0 | 13 | 0 | 0 | 39 | 31 | 
3 | O=C1CC[C@@H](C(=O)N/N=C/c2cccc(C(F)(F)F)c2Cl)N1 | Non-Toxic | 12 | 44 | 0 | 47 | 18 | 36 | 0 | 0 | 0 | 4 | 62 | 19 | 
4 | COc1cc(/C=N/NC(=O)[C@@H]2CCC(=O)N2)cc(OC)c1OC | Non-Toxic | 29 | 32 | 0 | 50 | 18 | 0 | 0 | 0 | 0 | 0 | 0 | 26 | 
5 | O=C1CC[C@@H](C(=O)N/N=C/c2cc(F)ccc2F)N1 | Non-Toxic | 0 | 26 | 58 | 47 | 18 | 34 | 0 | 6 | 0 | 13 | 62 | 37 | 
6 | O=C1CC[C@@H](C(=O)N/N=C/C2CCCCC2)N1 | Non-Toxic | 8 | 23 | 0 | 0 | 30 | 1 | 0 | 8 | 0 | 8 | 62 | 36 | 
7 | COc1cc(/C=N/NC(=O)[C@@H]2CCC(=O)N2)ccc1O | Non-Toxic | 20 | 0 | 0 | 37 | 0 | 0 | 0 | 0 | 0 | 0 | 0 | 22 | 
8 | COc1ccc(/C=N/NC(=O)[C@@H]2CCC(=O)N2)cc1 | Non-Toxic | 3 | 23 | 0 | 40 | 40 | 35 | 49 | 0 | 38 | 24 | 25 | 36 | 
9 | OC(Cn1cncn1)(Cn1cncn1)c1ccc(F)cc1F [FLUCONAZOLE] |  |  |  |  |  |  |  |  |  |  |  |  |  | 1.6
10 | CC1(C)C2CC=C(/C=N/NC(=O)[C@@H]3CCC(=O)N3)C1C2 (stereo not given in full) | Non-Toxic | 0 | 0 | 0 | 0 | 18 | 0 | 0 | 0 | 0 | 4 | 0 | 39 | 
11 | O=C1CC[C@@H](C(=O)N/N=C/CCc2ccccc2)N1 | Non-Toxic | 0 | 29 | 0 | 0 | 12 | 53 | 17 | 6 | 0 | 0 | 68 | 39 | 
12 | O=C1CCC(NNc2ccccn2)N1 (racemic) | Non-Toxic | 0 | 21 | 64 | 0 | 0 | 0 | 8 | 0 | 0 | 23 | 32 | 11 | 
13 | N#Cc1ccc(/C=N/NC(=O)[C@@H]2CCC(=O)N2)cc1 | Non-Toxic | 42 | 20 | 0 | 10 | 0 | 0 | 0 | 0 | 0 | 0 | 0 | 33 | 
14 | O=C1CC[C@@H](C(=O)N/N=C/c2c(F)c(F)c(F)c(F)c2F)N1 | Non-Toxic | 0 | 21 | 40 | 0 | 0 | 11 | 0 | 17 | 5 | 4 | 36 | 0 | 
